Laboratory results reported in patent US5444174A, “16-membered macrolide derivative having sustained antibacterial activity in plasma, synthesis intermediate thereof and process for producing the same” (Meiji Seika Kaisha, Ltd., priority 1992, dated 1995).
≈ marks a conversion by molar mass, not a printed value. Where two headings read alike, the source gives them in different places.

How the values were obtained:
Assay type in all cases: cell-based
[1] = system: K. pneumoniae PC1602; experiment: Antibacterial activity (MIC), agar plate dilution method; details: Klebsiella pneumoniae, 37° C., 20 hours
Experimental: (§1) Antibacterial activities of the compounds of formula (I) are shown in Table 1 in terms of minimum inhibitory concentration (MIC).
(§2) Minimum inhibitory concentration was determined by the agar plate dilution method. Test strains were subjected to seed culture using Sensitivity test broth (STB, Nissui Pharmaceutical) except that the strains belonging to the genus Streptococcus, Branhamella and Haemophilus were cultured on blood agar plate. A 5 μl portion of cell suspension of the test strains having about 10^6 CFU/ml was inoculated into Sensitivity disk agar (SDA, Nissui Pharmaceutical) supplemented with 5% horse blood and incubated at 37° C. for 20 hours. Then, MIC was measured.

[2] = system: B. catarrhalis W-0506; experiment: as above; details: Moraxella catarrhalis, read-out: Antibacterial activity (MIC)
Experimental: as §1, §2

[3] = system: M. luteus ATCC 9341; experiment: as above; details: Micrococcus luteus, ATCC9341, 37° C., 20 hours
Experimental: as §1, §2

[4] = system: Sta. aureus M126; experiment: as above; details: Staphylococcus aureus, 37° C., 20 hours
Experimental: as §1, §2

[5] = system: Sta. aureus M133; experiment: as above; details: Staphylococcus aureus, read-out: Antibacterial activity (MIC)
Experimental: as §1, §2

[6] = system: S. pneumoniae Type 1; experiment: as above; details: Streptococcus pneumoniae, TYPE1, 37° C., 20 hours, blood agar seed culture
Experimental: as §1, §2

[7] = system: S. Pyogenes Cook; experiment: as above; details: Streptococcus pyogenes, 37° C., 20 hours, blood agar seed culture
Experimental: as §1, §2

[8] = system: Sta. aureus MS15026; experiment: as above; details: Staphylococcus aureus, 37° C., 20 hours
Experimental: as §1, §2

[9] = system: Ent. faecalis W-73; experiment: as above; details: Enterococcus faecalis, W73, 37° C., 20 hours
Experimental: as §1, §2

[10] = system: Sta. aureus MS15027; experiment: as above; details: Staphylococcus aureus, read-out: Antibacterial activity (MIC)
Experimental: as §1, §2

[11] = system: E. coli NIHJ JC-2; experiment: as above; details: Escherichia coli, NIHJJC2, 37° C., 20 hours
Experimental: as §1, §2

[12] = system: Sta. aureus MS15009/pMS99; experiment: as above; details: Staphylococcus aureus, MS15009/PMS99, 20 h, read-out: Antibacterial activity (MIC)
Experimental: as §1, §2

[13] = system: Sta. aureus MS15009/pMS98; experiment: as above; details: Staphylococcus aureus, MS15009/PMS98, 20 h, read-out: Antibacterial activity (MIC)
Experimental: as §1, §2

[14] = system: S. pneumoniae IP692; experiment: as above; details: Streptococcus pneumoniae, 37° C., 20 hours, blood agar seed culture
Experimental: as §1, §2

[15] = system: Sta. aureus 209P JC-1; experiment: as above; details: Staphylococcus aureus, 37° C., 20 hours
Experimental: as §1, §2

[16] = system: Sta. epidermidis ATCC 14990; experiment: as above; details: Staphylococcus epidermidis, read-out: Antibacterial activity (MIC)
Experimental: as §1, §2

[17] = system: B. catarrhalis W-0500; experiment: as above; details: Moraxella catarrhalis, read-out: Antibacterial activity (MIC)
Experimental: as §1, §2

[18] = system: H. influenza 9334; experiment: as above; details: 37° C., 20 hours, blood agar seed culture
Experimental: as §1, §2

[19] = system: gram-positive bacteria; experiment: Antibacterial activities against gram-positive bacteria (summary of Table 1); details: in words, vs miokamycin
Experimental: as §1, §2

[20] = W0506, 37° C., 20 hours, blood agar seed culture, B. catarrhalis W-0506
[21] = ATCC14990, 37° C., 20 hours, Sta. epidermidis ATCC 14990
[22] = 37° C., 20 hours, Sta. aureus M133
[23] = 37° C., 20 hours, Sta. aureus MS15027
[24] = W0500, 37° C., 20 hours, blood agar seed culture, B. catarrhalis W-0500

| Structure (SMILES) | MIC [1] [µg/mL] | MIC [2, 20] [µg/mL] | MIC [3] [µg/mL] | MIC [4] [µg/mL] | MIC ([5]; M133, 20 h) [µg/mL] | MIC [6] [µg/mL] | MIC [7] [µg/mL] | MIC [8] [µg/mL] | MIC [9] [µg/mL] | MIC ([10]; MS15027, 20 h) [µg/mL] | MIC [11] [µg/mL] | MIC [12] [µg/mL] | MIC [13] [µg/mL] | MIC [14] [µg/mL] | MIC [15] [µg/mL] | MIC [16, 21] [µg/mL] | MIC [5, 22] [µg/mL] | MIC [18] [µg/mL] | MIC [10, 23] [µg/mL] | MIC [17, 24] [µg/mL] | other results |
| --- | --- | --- | --- | --- | --- | --- | --- | --- | --- | --- | --- | --- | --- | --- | --- | --- | --- | --- | --- | --- | --- |
| C=CCO[C@H]1[C@H](C)O[C@@H](O[C@H]2[C@H](N(C)C)[C@@H](O)[C@H](O[C@H]3[C@@H](CC=O)C[C@@H](C)C(=O)/C=C/C=C/C[C@@H](C)OC(=O)C[C@@H](OC(=O)CC)[C@@H]3OC)O[C@@H]2C)C[C@@]1(C)OC [Compound (39)] | > 100 | 6.25 (≈ 7.72 µM) | 0.39 (≈ 0.481 µM) | > 100 | 12.5 (≈ 15.4 µM) | 1.56 (≈ 1.93 µM) | 1.56 (≈ 1.93 µM) | > 100 | 6.25 (≈ 7.72 µM) | 12.5 (≈ 15.4 µM) | > 100 | > 100 | 12.5 (≈ 15.4 µM) | 1.56 (≈ 1.93 µM) | 3.13 (≈ 3.86 µM) | 25 (≈ 30.9 µM) | – | – | – | – | MIC ([17]; W0500, 20 h): 12.5 µg/mL (≈ 15.4 µM) |
| CCC(=O)O[C@@H]1CC(=O)O[C@H](C)C/C=C/C=C/C(=O)[C@H](C)C[C@H](CC=O)[C@H](O[C@@H]2O[C@H](C)[C@@H](O[C@H]3C[C@@](C)(OC)[C@@H](OCC=C(C)C)[C@H](C)O3)[C@H](N(C)C)[C@H]2O)[C@H]1OC [Compound (40)] | > 100 | 1.56 (≈ 1.86 µM) | 0.1 (≈ 0.119 µM) | > 100 | – | 0.39 (≈ 0.465 µM) | 0.2 (≈ 0.239 µM) | > 100 | 3.13 (≈ 3.73 µM) | – | > 100 | > 100 | 0.78 (≈ 0.931 µM) | 0.39 (≈ 0.465 µM) | 0.78 (≈ 0.931 µM) | 3.13 (≈ 3.73 µM) | 1.56 (≈ 1.86 µM) | 12.5 (≈ 14.9 µM) | 1.56 (≈ 1.86 µM) | 1.56 (≈ 1.86 µM) | – |
| CCCCO[C@H]1[C@H](C)O[C@@H](O[C@H]2[C@H](N(C)C)[C@@H](O)[C@H](O[C@H]3[C@@H](CC=O)C[C@@H](C)C(=O)/C=C/C=C/C[C@@H](C)OC(=O)C[C@@H](OC(=O)CC)[C@@H]3OC)O[C@@H]2C)C[C@@]1(C)OC [Compound (41)] | > 100 | 0.78 (≈ 0.944 µM) | 0.05 (≈ 0.0605 µM) | > 100 | – | 0.2 (≈ 0.242 µM) | 0.1 (≈ 0.121 µM) | > 100 | 3.13 (≈ 3.79 µM) | – | > 100 | > 100 | 0.39 (≈ 0.472 µM) | 0.1 (≈ 0.121 µM) | 0.2 (≈ 0.242 µM) | 1.56 (≈ 1.89 µM) | 0.78 (≈ 0.944 µM) | 6.25 (≈ 7.57 µM) | 0.78 (≈ 0.944 µM) | 0.78 (≈ 0.944 µM) | antibacterial activities compared with miokamycin [19]: excellent antibacterial activities exceeding that of miokamycin |
| CCCCCCO[C@H]1[C@H](C)O[C@@H](O[C@H]2[C@H](N(C)C)[C@@H](O)[C@H](O[C@H]3[C@@H](CC=O)C[C@@H](C)C(=O)/C=C/C=C/C[C@@H](C)OC(=O)C[C@@H](OC(=O)CC)[C@@H]3OC)O[C@@H]2C)C[C@@]1(C)OC [Compound (42)] | > 100 | – | 0.1 (≈ 0.117 µM) | > 100 | 1.56 (≈ 1.83 µM) | 0.2 (≈ 0.234 µM) | 0.2 (≈ 0.234 µM) | > 100 | 6.25 (≈ 7.32 µM) | 1.56 (≈ 1.83 µM) | > 100 | > 100 | 1.56 (≈ 1.83 µM) | 0.2 (≈ 0.234 µM) | 0.78 (≈ 0.913 µM) | – | – | 12.5 (≈ 14.6 µM) | – | – | MIC ([2]; W0506, 20 h): 1.56 µg/mL (≈ 1.83 µM); MIC ([16]; ATCC14990, 20 h): 1.56 µg/mL (≈ 1.83 µM); MIC ([17]; W0500, 20 h): 1.56 µg/mL (≈ 1.83 µM) |
| CCC(=O)O[C@@H]1CC(=O)O[C@H](C)C/C=C/C=C/C(=O)[C@H](C)C[C@H](CC=O)[C@H](O[C@@H]2O[C@H](C)[C@@H](O[C@H]3C[C@@](C)(OC)[C@@H](OCCCC(C)C)[C@H](C)O3)[C@H](N(C)C)[C@H]2O)[C@H]1OC [Compound (43)] | > 100 | 1.56 (≈ 1.83 µM) | 0.05 (≈ 0.0585 µM) | > 100 | – | 0.2 (≈ 0.234 µM) | 0.05 (≈ 0.0585 µM) | > 100 | 3.13 (≈ 3.66 µM) | – | > 100 | > 100 | 0.78 (≈ 0.913 µM) | 0.2 (≈ 0.234 µM) | 0.39 (≈ 0.457 µM) | 1.56 (≈ 1.83 µM) | 1.56 (≈ 1.83 µM) | 12.5 (≈ 14.6 µM) | 1.56 (≈ 1.83 µM) | 1.56 (≈ 1.83 µM) | – |
| CCC(=O)O[C@@H]1CC(=O)O[C@H](C)C/C=C/C=C/C(=O)[C@H](C)C[C@H](CC=O)[C@H](O[C@@H]2O[C@H](C)[C@@H](O[C@H]3C[C@@](C)(OC)[C@@H](OCc4ccccc4)[C@H](C)O3)[C@H](N(C)C)[C@H]2O)[C@H]1OC [Compound (44)] | > 100 | 1.56 (≈ 1.81 µM) | 0.1 (≈ 0.116 µM) | > 100 | – | 0.2 (≈ 0.233 µM) | 0.2 (≈ 0.233 µM) | > 100 | 1.56 (≈ 1.81 µM) | – | > 100 | > 100 | 0.78 (≈ 0.907 µM) | 0.2 (≈ 0.233 µM) | 0.2 (≈ 0.233 µM) | 3.13 (≈ 3.64 µM) | 1.56 (≈ 1.81 µM) | 6.25 (≈ 7.27 µM) | 1.56 (≈ 1.81 µM) | 1.56 (≈ 1.81 µM) | – |
